{"source": "patent US20020194634A1", "about": "“Insect control system” (priority 1999, published 2002)", "key": {"[1]": {"test_system": "adult boll weevil Anthonomus granids Boheman", "details": "cited from earlier work"}, "[2]": {"test_system": "tobacco budworm Heliothis virescens", "details": "cited from earlier work"}, "[3]": {"test_system": "acetylcholinesterase (AchE)", "details": "cited from earlier work"}, "[4]": {"test_system": "nicotinergic acetylcholine receptor (nAcR)", "details": "methyl group at the 3 position of the imidazole ring; cited from earlier work"}, "housefly": {"test_system": "housefly", "details": "cited from earlier work"}, "[5]": {"details": "budworm larvae, within 2 hours of a topical acephate application; cited from earlier work"}, "[6]": {"test_system": "non-transformed adult flies", "test": "5-FC feeding of non-transformed adult flies", "type": "in vivo, Drosophila melanogaster", "details": "5-FC in food", "procedure": "(§1) To evaluate the effects of 5-FU on a D. melanogaster yw strain, flies were raised first on medium containing 5-FU. Groups of 25 flies were cultured on food containing various concentrations of the drug. Four vials of each concentration of the drug were used for each experiment and three experiments were performed. The surviving flies per vial were counted over a period of time. […] No eggs were laid on food containing more than 20 mM of 5-FU.\nThe effects of the pro-drug 5-FC on non-transformed adult flies were determined in a similar way."}, "CD transformed flies": {"test_system": "CD transformed flies", "test": "5-FC feeding of CD transformed flies", "type": "in vivo, Drosophila melanogaster", "details": "female CD flies compared with male CD flies, 5-FC in food", "procedure": "The effect of the pro-drug 5-FC on CD transformed flies was determined by raising the flies on food containing various concentrations of 5-FC."}, "[7]": {"test_system": "transgenic Medfly (C. capitata) carrying the cytosine deaminase transgene", "test": "5-FC susceptibility of transgenic Medfly expressing cytosine deaminase", "type": "in vivo, Ceratitis capitata", "procedure": "Using standard methods, a genetic construct is prepared bearing the C. capitata VG1 promoter operably linked to a cDNA encoding E. coli cytosine deaminase. The cytosine deaminase gene, when introduced into insect cells, confers sensitivity to the pro-drug 5-FC.\nThe construct is inserted into the Minos transposon using conventional techniques and, in addition, those described in U.S. Pat. No. 5,840,865. The modified transposon is then used to transform Medfly according to standard transgenesis procedures.\nTransgenic flies carrying the modified transposon are bred to create transgenic strains that express the cytosine deaminase enzyme. […] Moreover, cytosine deaminase expression is correlated with susceptibility to the pro-drug 5-FC administered in food to the flies.\nA highly susceptible strain is bred and male flies isolated. Introduction of male flies into a population of non-transgenic flies results in rapid transfer of the transgene. Female flies which are born inheriting the transgene are susceptible to 5-FC, whilst male files remain resistant."}, "[8]": {"test_system": "human colorectal carcinoma cells transfected with a construct expressing bacterial CD", "details": "CD-transfected vs untransfected colorectal carcinoma cells; cited from earlier work"}, "[9]": {"test_system": "D. melanogaster (strain yw)", "test": "5-FU feeding toxicity in D. melanogaster yw strain", "type": "in vivo, Drosophila melanogaster", "details": "5-FU in food", "procedure": "FIG. 5. Sensitivity of D. melanogaster (strain yw) to 5-FU. The yw strain is used routinely as recipient for generation of transgenic lines. Flies were reared in stadard Drosophila food supplemented with 5-FU at the indicated concentrations of 0 mM, 5 mM, 10 mM, 20 mM, 30 mM, 50 mM 5-FU. The x-axis represents time in days and the y-axis represents the number of flies. The data points represent the number of surviving flies.\nFIG. 6. Dose-dependent lethality of D. melanogaster to 5-FU. The x-axis represents 5-FU concentration in mM and the y-axis represents the number of flies. Strain yw flies that were used in the above described transformation experiment were reared in standard Drosophila food supplemented with 5-FU at the indicated concentrations and viable flies were determined after 9 days. Each data point represents the mean±standard deviation of three separate experiments, each with 100 flies.\nas §1"}}}
{"compound": "COP(N)(=O)SC", "note": "(stereo not drawn) [methamidophos, O, S-dimethyl phosphoramidothicate]", "values": [{"measurement": "fold more toxic than acephate", "setting": "[1]", "result": 75, "unit": "fold"}, {"measurement": "activity of acephate versus methamidophos", "setting": "[2]", "result": "comparable activity"}, {"measurement": "AchE inhibition (in words)", "setting": "[3]", "result": "potent"}]}
{"compound": "CN1CCN(Cc2ccc(Cl)nc2)C1=N[N+](=O)[O-]", "note": "[N-Me-imidacloprid]", "values": [{"measurement": "decrease in binding affinity to nAcR relative to imidacloprid", "setting": "[4]", "result": 100, "unit": "fold"}, {"measurement": "potency relative to imidacloprid", "setting": "housefly", "result": "as potent as imidacloprid"}]}
{"compound": "COP(=O)(NC(C)=O)SC", "note": "(stereo not drawn) [Acephate, O, S-dimethyl acetylphosphoramidothicate]", "values": [{"measurement": "activity of acephate versus methamidophos", "setting": "[2]", "result": "comparable activity"}, {"measurement": "AchE inhibition (in words)", "setting": "[3]", "result": "not an AchE inhibitor"}, {"measurement": "methamidophos formed from acephate", "setting": "[5]", "result": "small amount"}]}
{"compound": "Nc1nc(=O)[nH]cc1F", "note": "[5-FC, 5-fluorocytosine]", "values": [{"measurement": "reduction in fly viability", "setting": "[6]", "result": "substantially no reduction"}, {"measurement": "viability with increasing 5-FC", "setting": "CD transformed flies", "result": "substantial reduction in viability"}, {"measurement": "susceptibility to 5-FC", "setting": "[7]; female Medflies inheriting the transgene", "result": "susceptible"}, {"measurement": "susceptibility to 5-FC", "setting": "[7]; male Medflies carrying the transgene", "result": "resistant"}, {"measurement": "fold more sensitive to 5-FC than untransfected cells", "setting": "[8]", "result": "about 600 fold"}]}
{"compound": "O=c1[nH]cc(F)c(=O)[nH]1", "note": "[5-FU, 5-fluorouracil]", "values": [{"measurement": "concentration in food above which no eggs were laid", "setting": "[9]", "result": "more than 20 mM"}, {"measurement": "concentration range causing efficient killing of flies", "setting": "[9]; within 9 days", "result": "30 to 50", "unit": "mM"}]}
